Measurements: patent US7030287B2, “Method of decreasing nitrate nitrogen and volatile organic compound in soil and groundwater” (Matsushita Electric Industrial Co., Ltd., priority 2001, dated 2006)

Columns and labels:
[1] = Polluted soil experiment (Examples 4 to 7): 1,1,1-trichloroethane concentration in polluted soil by GC-MS
Description: (§1) FIG. 4 is a view showing an experiment facility used for effecting the method of decreasing nitrate nitrogen and volatile organic compounds in Example 4. A part (a) of FIG. 4 is a plan view of the experiment facility, and a part (b) of FIG. 4 is a side view thereof.
(§2) As shown in the part (a) of FIG. 4, the polluted soil 32 is provided approximately at the center of the experiment bath 34 so that it is surrounded by the experiment soil 33.
(§3) In Example 4, the concrete frame 31 in the form of square measure is a cube of 1 m square having open upper part, and artificial soil prepared by mixing kuroboku soil and loam in equivalent amounts was charged in the experiment bath 34 formed with the concrete frame 31 and allowed to stand outdoors (average temperature: 21° C.) for about 2 months.
(§4) Then, the surface of the artificial soil formed as described above was dug to form a hole in the form of cylinder having a diameter of 30 cm and a depth of 50 cm, and this hole was re-buried with the polluted soil 32.
(§5) The polluted soil was obtained by adding experiment materials (containing no nitrogen atom) such as fatty acids and alcohols of the present invention and comparative materials of conventional technologies used for comparison in an amount of 1 wt % to 1.2 ton of soil polluted with 1,1,1-trichloroethane and 1,1-dichloroethylene (containing about 1400 μg/L of […], about 50 μg/L of 1,1-dichloroethylene, by elution test according to Kankoku No. 46), and mixing kuroboku soil and loam in equivalent amounts uniformly.
(§6) To the polluted soil formed as described above was fed diammonium hydrogen phosphate having a concentration of 100 mg/L as a nutrient salt (nitrogen source) at a ratio of 140 L/day.
(§7) Under the above-mentioned conditions, the concentrations of 1,1,1-trichloroethane and 1,1-dichloroethylene in the polluted soil 32 were measured by gas chromatograph mass spectrometry 20 days after initiation of the experiment. Soils around the re-buried polluted soil 32 (soils on four corners A to D at a depth of 50 cm in FIG. 4) were sampled, and four-point average values of the total carbon concentration and total nitrogen concentration per soil dried weight were measured.
(§8) In the method of decreasing nitrate nitrogen and volatile organic compounds in Example 5, the same experiment facility (FIG. 4) as in Example 4 was used. Stearic acid was used as the decreasing agent such as fatty acids, alcohols and the like used in the present invention, and an iron powder having an average particle size of about 15 μm was added simultaneously with this stearic acid, to give polluted soil of compartment No. 1. In polluted soil of compartment No. 2, stearic acid and an aluminum powder having an average particle size of 180 μm were added in the same concentration as the polluted soil of compartment No. 1. The same experiment as in Example 4 was conducted on these polluted soils (compartment Nos. 1, 2).
(§9) In the method of decreasing nitrate nitrogen and volatile organic compounds in Example 6, the same experiment facility (FIG. 4) as in Example 4 was used. Beef tallow fatty acid was used as the decreasing agent such as fatty acids, alcohols and the like used in the present invention, and a bacteria previously cultured was inoculated to the soil and the same experiment as in Example 4 was conducted.
(§10) For obtaining the bacteria used in Example 6, 1,1,1-trichloroethane was controlled to 5000 μg/L, 1,1-dichloroethylene was controlled to 5000 μg/L, diammonium hydrogen phosphate was controlled to 800 mg/L and beef tallow fatty acid which was only carbon source was controlled to 0.5 wt % in soil collected at a point of 30 cm depth from the ground surface of agricultural land (tea field), and the medium was cultured at a temperature of 16° C. for 12 days.
(§11) In the method of decreasing nitrate nitrogen and volatile organic compounds in Example 7, the same experiment facility (FIG. 4) as in Example 4 was used. […]

[2] = Polluted soil experiment (Examples 4 to 7): 1,1-dichloroethylene concentration in polluted soil by GC-MS
Description: as §1, §2, §3, §4, §5, §6, §7, §8, §9, §10, §11

[3] = Artificial soil experiment (Example 1): materials mixed 1 wt % in kuroboku soil, analysis of water passed through the gravel layer; conditions: water passed through soil with 1 wt % material, nitrate nitrogen solution 90 mg/L added 100 mL/day
Method: FIG. 1 is a sectional view showing an artificial soil experiment facility used for effecting a soil experiment in a method of decreasing nitrate nitrogen and volatile organic compounds in Example 1.
On each experiment bath 7, nozzles are placed for adding a nitrate nitrogen solution, and these nozzles are communicated with a pipe 6 in which the nitrate nitrogen solution flows.
The following experiments were conducted using the artificial soil experiment facility constituted as described above.
In the experiment bath 7, a gravel layer 3 and experiment soil 2 are placed. In each experiment soil 2, a carrot seedling 5 is planted.
The ground surface area of the experimental bath 7 was 11 m^2, and the soil depth of the experimental soil 2 was 1.4 m. Kuroboku soil was used as the experimental soil 2. Under this experiment soil 2, a gravel layer 3 is formed by placing gravels at a thickness of 20 cm from the bottom.
In 14 compartments of experiment layers 7, five carrot seedlings having a leaf length of about 14 cm were planted in each compartment, and a nitrate nitrogen solution of which nitrate nitrogen concentration had been previously controlled to 90 mg/L was added continuously at a rate of 100 mL/day using a metering pump. Of 14 compartments of experiment layers 7, in compartments Nos. 1 to 9, experiment materials of the present invention were mixed in soil, and in compartments Nos. 10 to 14, comparative materials were mixed in soil, before experiments.
The experiment soils 2 in each test district and comparative district were made by uniformly mixing experiment materials (fatty acid, alcohol and the like) and comparative materials (materials used in conventional technologies) in a soil dry weight ratio of 1 wt %, previously.
In the artificial soil experiment facility constituted as described above, water passed through the gravel layer 3 was collected, and analyses of the nitrate nitrogen concentration, ammonia nitrogen concentration and total carbon concentration after 65 days were conducted according to JIS methods.

[4] = Artificial groundwater experiment (Example 2): 800 g hydrogen donor added from artificial well, analysis of sampled groundwater; conditions: 800 g material, nitrate nitrogen solution 40 mg/L added 12 mL/day
Description: FIG. 2 is a sectional view showing an artificial groundwater experiment facility used for effecting a groundwater experiment in the method of decreasing nitrate nitrogen and volatile organic compounds in Example 2.
In the experiment bath 17 surrounded by the concrete block frame 11 in the artificial groundwater experiment facility, the ground surface area of the experiment soil 12 was 18 m^2, and the soil depth was 6.0 m. Under this experiment soil 12, a gravel layer 13 is formed at a thickness of 50 cm. A mixture of kuroboku soil and loam at a ratio of about 6:4 was used as the experiment soil 12.
In the experiment bath 17, an artificial well 14 constituted of a vinyl chloride tube having a diameter of 20 cm is provided. This artificial well 14 is provided at a position 0.5 m from the inner wall surface at one end of the experiment bath 17 (this inner wall surface is standard position) and has a depth of about 6 m, and reaches to the gravel layer 13. Further, a nitrate nitrogen solution addition piper 16 for adding a nitrate nitrogen solution is buried at a position 2 m from the inner wall surface (standard position) of the experiment bath 17 in the artificial groundwater experiment facility, extending to a position 4 m depth from the ground surface. A measurement water incorporating port 15 communicating to outside is provided on another inner wall surface opposite to the standard surface, one inner wall surface. This measurement water incorporating port 15 is formed at a position 50 cm from the bottom (corresponding to the uppermost part of the gravel layer 13), and provided for sampling measurement water which is groundwater.
The following experiments were conducted in 12 compartments using the artificial soil experiment facility constituted as described above.
In each experiment bath 17, a nitrate nitrogen solution of which nitrate nitrogen concentration had been previously controlled to 40 mg/L was added continuously from the end of the nitrate nitrogen solution adding pipe 16 (position 4 m from the ground surface) at a rate of 12 mL/day using a metering pump.
Under the above-mentioned conditions, movement of artificial groundwater is estimated to about 6.5 m/year. The present inventors have added 800 g of each hydrogen donor from the artificial well 14 in each test district and each comparative district. 30 days after initiation of the test, water was sampled from the measurement water incorporating port 15 formed at a position 50 cm from the bottom (corresponding to the uppermost part of gravel layer), and analyses of the nitrate nitrogen concentration, ammonia nitrogen concentration and total carbon concentration of the collected water were conducted according to JIS methods.

[5] = Example 4, 1 wt % material in polluted soil (about 1400 μg/L initially), diammonium hydrogen phosphate fed
[6] = Example 4, 1 wt % material in polluted soil (about 50 μg/L initially), diammonium hydrogen phosphate fed
[7] = Example 7, nutrient salt containing nitrogen not added

CCCCCCCCCCCCCCCCCCCCCCO [Behenyl alcohol]
1,1,1-trichloroethane concentration after 20 days [1, 5]: 920 µg/L | 1,1-dichloroethylene concentration after 20 days [2, 6]: 21 µg/L

CC(O)C(=O)O (stereo not drawn) [Lactic acid, reference compound]
1,1,1-trichloroethane concentration after 20 days [1, 5]: 870 µg/L | 1,1-dichloroethylene concentration after 20 days [2, 6]: 20 µg/L

Sorbitan distearate
Nitrate nitrogen concentration after 65 days [3]: 14 mg/L

CCCCCCCCCCCCCCCCCCC(=O)CCCCCCCCCCCCCCCCCC [Distearyl ketone]
1,1,1-trichloroethane concentration after 20 days [1, 7]: 830 µg/L | 1,1-dichloroethylene concentration after 20 days [2, 7]: 20 µg/L

Tetraglyceryl pentastearate
Nitrate nitrogen concentration after 30 days [4]: 8 mg/L

Sorbitan monopalmitate
Nitrate nitrogen concentration after 30 days [4]: 5 mg/L

CCCCCCCCCCCCCCOC(=O)CCCCCCCCCCCCC [Myristyl myristate]
Nitrate nitrogen concentration after 30 days [4]: 5 mg/L

CCCCCCCCCCCCCCCCCCO [Stearyl alcohol]
Nitrate nitrogen concentration after 30 days [4]: 4 mg/L

Oleic monoglyceride
1,1,1-trichloroethane concentration after 20 days [1, 5]: 700 µg/L | 1,1-dichloroethylene concentration after 20 days [2, 6]: 19 µg/L

CCO [Ethanol, reference compound]
1,1,1-trichloroethane concentration after 20 days [1, 5]: 1100 µg/L | 1,1-dichloroethylene concentration after 20 days [2, 6]: 19 µg/L

CC(=O)O [Acetic acid, reference compound]
1,1,1-trichloroethane concentration after 20 days [1, 7]: 1350 µg/L | 1,1-dichloroethylene concentration after 20 days [2, 7]: 41 µg/L

CCCCCCCC/C=C\CCCCCCCC(=O)O [Oleic acid, reference compound]
1,1,1-trichloroethane concentration after 20 days [1, 5]: 690 µg/L | 1,1-dichloroethylene concentration after 20 days [2, 6]: 21 µg/L

OC[C@H]1O[C@@H](O[C@H]2[C@H](O)[C@@H](O)C(O)O[C@@H]2CO)[C@H](O)[C@@H](O)[C@H]1O (stereo partly drawn) [Lactose, reference compound]
Nitrate nitrogen concentration after 65 days [3]: 41 mg/L

CCCCCCCCCCCCCCCCCCNCCCCCCCCCCCCCCCCCC [Distearylamine]
1,1,1-trichloroethane concentration after 20 days [1, 7]: 910 µg/L | 1,1-dichloroethylene concentration after 20 days [2, 7]: 24 µg/L

CCCCCCCCCCCCCCN [Myristylamine]
1,1,1-trichloroethane concentration after 20 days [1, 7]: 940 µg/L | 1,1-dichloroethylene concentration after 20 days [2, 7]: 29 µg/L

CCCCCCCC(=O)O [Caprylic acid, reference compound]
1,1,1-trichloroethane concentration after 20 days [1, 5]: 960 µg/L | 1,1-dichloroethylene concentration after 20 days [2, 6]: 16 µg/L

CCCCCCCCCCCCCCCCCC(=O)O [Stearic acid]
Nitrate nitrogen concentration after 65 days [3]: 22 mg/L | 1,1,1-trichloroethane concentration after 20 days [1, 5]: 820 µg/L | 1,1-dichloroethylene concentration after 20 days [2, 6]: 24 µg/L

CCCCCCCCCCCCCCCCCC(=O)O[C@H]1CC[C@@]2(C)C(=CC[C@H]3[C@@H]4CC[C@H]([C@H](C)CCCC(C)C)[C@@]4(C)CC[C@@H]32)C1 [Cholesterol stearate]
1,1,1-trichloroethane concentration after 20 days [1, 5]: 650 µg/L | 1,1-dichloroethylene concentration after 20 days [2, 6]: 20 µg/L

CC(=O)O.CCCCCCCCCCCCCCCCCCN [Stearylamine acetate]
1,1,1-trichloroethane concentration after 20 days [1, 7]: 900 µg/L | 1,1-dichloroethylene concentration after 20 days [2, 7]: 28 µg/L

CCCCCCCCCCCCO [lauryl alcohol]
Nitrate nitrogen concentration after 65 days [3]: 18 mg/L

Myristilate
Nitrate nitrogen concentration after 30 days [4]: 9 mg/L

CCCCCCCCCCCCCCCCCC(N)=O [Stearic amide]
1,1,1-trichloroethane concentration after 20 days [1, 7]: 790 µg/L | 1,1-dichloroethylene concentration after 20 days [2, 7]: 24 µg/L

CCCCCCCCCCCCCCCCOC(=O)CCCCCCCCCCCCCCC [Cetyl palmitate]
Nitrate nitrogen concentration after 65 days [3]: 20 mg/L

Polyoxyethylene octylphenyl ether
1,1,1-trichloroethane concentration after 20 days [1, 5]: 820 µg/L | 1,1-dichloroethylene concentration after 20 days [2, 6]: 24 µg/L

CO [Methanol, reference compound]
1,1,1-trichloroethane concentration after 20 days [1, 7]: 1330 µg/L | 1,1-dichloroethylene concentration after 20 days [2, 7]: 49 µg/L
